In brackets after ≈: the same amount, converted by molar mass.
How the values were obtained:
[1] = Precipitation of Compound 1 from cosolvent systems upon addition of water; format: physicochemical; settings: cosolvent systems of PEG 400 or 300, Benzyl Alcohol, Ethanol and low amounts of bile salts; water at 30% levels in final mixture
From the text: In additional combinations as cosolvent systems, of PEG 400 or 300, Benzyl Alcohol, Ethanol and low amounts of bile salts (e.g. Sodium Deoxytauro Cholate), Compound 1 precipitated upon an addition of water at 30% levels in the final aqueous-organic mixture.

[2] = Solubility of Compound 1 in pharmaceutical solvents at 25° C.; format: physicochemical
From the text: Compound 1 is a nonpeptide vasopressin receptor antagonist and is insoluble in aqueous solutions throughout the physiological pH range (1.2 to 7.5).

For `Cc1ccc(F)cc1C(=O)Nc1ccc(C(=O)N2Cc3cccn3Cc3ccccc32)c(Cl)c1` [Compound 1, 5-fluoro-2-methyl-N-[4-(5H-pyrrolo[2,1-c][1,4]benzodiazepin-10(11H)-ylcarbonyl)-3-chlorophenyl]benzamide], the “Behaviour upon addition of water” value [1] was “precipitated”, the solubility ([2]; aqueous buffer, 10 mM Phosphate buffer (pH 7.4), 25° C.) was under 0.001 µg/mL and the solubility ([2]; aqueous with cosolvent or surfactant or cyclodextrin, Aqueous solution of Poloxamer 188 (10, 20 and 30%), 25° C.) was under 0.001 µg/mL. The solubility ([2]; aqueous with cosolvent or surfactant or cyclodextrin, Cremophor EL, 25° C.) was 5100 µg/mL (≈ 10800 µM), the solubility ([2]; aqueous with cosolvent or surfactant or cyclodextrin, Gelucire 48109, 25° C.) was 2260 µg/mL (≈ 4770 µM) and the solubility ([2]; aqueous with cosolvent or surfactant or cyclodextrin, Labrasol, 25° C.) was 7500 µg/mL (≈ 15800 µM). For the same molecule, the solubility ([2]; aqueous with cosolvent or surfactant or cyclodextrin, PEG 300/Alcohol/Water (40:30:30), 25° C.) was 280 µg/mL (≈ 591 µM), the solubility ([2]; aqueous with cosolvent or surfactant or cyclodextrin, Sodium Lauryl sulfate, 25° C.) was 20 µg/mL (≈ 42.2 µM) and the solubility ([2]; fassgf or other biorelevant, SIF without enzyme, 25° C.) was under 0.001 µg/mL. The solubility ([2]; oil or lipid, Ethyl oleate, 25° C.) was 200 µg/mL (≈ 422 µM), the solubility ([2]; oil or lipid, Miglyol 812, 25° C.) was 290 µg/mL (≈ 612 µM) and the solubility ([2]; oil or lipid, Neobee M5, 25° C.) was 520 µg/mL (≈ 1100 µM). It also gave a solubility ([2]; oil or lipid, Oleic acid, 25° C.) of 40 µg/mL (≈ 84.4 µM), a solubility ([2]; oil or lipid, Olive oil, 25° C.) of 30 µg/mL (≈ 63.3 µM) and a solubility ([2]; oil or lipid, Propylene glycol Laurate, 25° C.) of 680 µg/mL (≈ 1430 µM). It also gave a solubility ([2]; oil or lipid, Safflower oil, 25° C.) of under 0.001 µg/mL, a solubility ([2]; oil or lipid, Soybean oil, 25° C.) of under 0.001 µg/mL and a solubility ([2]; organic solvent or mixture, Benzyl Alcohol, 25° C.) of 21000 µg/mL (≈ 44400 µM). For the same molecule, the solubility ([2]; organic solvent or mixture, Benzyl Benzoate, 25° C.) was 3410 µg/mL (≈ 7200 µM), the solubility ([2]; organic solvent or mixture, Ethanol, 25° C.) was 1890 µg/mL (≈ 3990 µM) and the solubility ([2]; organic solvent or mixture, PEG 300, 25° C.) was 14900 µg/mL (≈ 31400 µM). It also gave a solubility ([2]; organic solvent or mixture, PEG 300/Alcohol (50:50), 25° C.) of 8750 µg/mL (≈ 18500 µM), a solubility ([2]; organic solvent or mixture, PEG 400, 25° C.) of 26300 µg/mL (≈ 55500 µM) and a solubility ([2]; organic solvent or mixture, PEG 400/Benzyl Alcohol (80:20), 25° C.) of 14600 µg/mL (≈ 30800 µM). For the same molecule, the solubility ([2]; organic solvent or mixture, Triacetin, 25° C.) was 2700 µg/mL (≈ 5700 µM), the “Solubility in partially aqueous solvents” value ([2]; partially aqueous solvents of pharmaceutically acceptable hydrophilic and lipophilic solvents) was “limited solubility” and the solubility ([2]; plasma or biological fluid, Human Serum Albumin, 25° C.) was 16 µg/mL (≈ 33.8 µM). For the same molecule, the solubility ([2]; propylene glycol (printed: Propylyne glycol), organic solvent or mixture, Propylyne glycol, 25° C.) was 600 µg/mL (≈ 1270 µM), the solubility ([2]; simulated gastric fluid, SGF without enzyme, 25° C.) was under 0.001 µg/mL and the “Solubility in aqueous solutions” value ([2]; throughout the physiological pH range (1.2 to 7.5)) was “insoluble”.

— patent publication US20070178147A1, “Liposomal compositions” (priority 2005, published 2007)
